From patent publication US20220299532A1, “CORRECTING PROTEIN MISFOLDING IN DIABETES” (Sanford Burnham Prebys Medical Discovery Institute, priority 2019, published 2022)

Key:
[1] = system: proinsulin complex formation; experiment: Inhibition of ER to Golgi trafficking: proinsulin disulfide linked HMW complex formation; type: cell-based; conditions: BFA treatment; with or without cycloheximide
Method: Also, it is contemplated that increased proinsulin synthesis predisposes to oligomer and HMW complex formation. To test the notion that increased proinsulin expression, as in T2D, may exacerbate abnormal disulfide formation, the effect of brefeldin A (BFA), which promotes retrograde COP1 trafficking from the cis-Golgi to the ER to prevent export of secretory proteins to the Golgi, and thus increasing their concentration in the ER, was tested.

mouse pancreatic islets = experiment: Proinsulin disulfide-linked / HMW complexes in murine islets, SDS-PAGE immunoblot (CCI-17); type: cell-based
Method: Mouse pancreatic islet isolation: Mice were euthanized by CO2 narcosis as per an approved institutional animal protocol. The pancreas was rapidly excised, minced in ice-cold PBS, and digested in 4 mL of Collagenase P (Roche) 1.5 mg/mL in Hank's Balanced Salt Solution containing calcium and magnesium, in a shaking water bath for 30 min at 37° C. The digestion was terminated in 40 mL ice-cold PBS (—Ca/—Mg) and the digested tissue washed twice in this buffer. The sedimented tissue digest was then overlaid with 3 mL Histopaque-1077 and further overlayed with 6 mL ice cold PBS (—Ca/—Mg) before centrifugation (3000 rpm for 20 min at 10° C. with no brake) and transfer of the midlayer of the Histopaque gradient to a 15 ml tube for two further washes in ice-cold PBS. Finally, the sedimented tissue was transferred to a petri dish in ice-cold RPMI-1640 buffer and islets hand-picked to purity. In experiments involving drug or compound treatment, the islets were finally recovered overnight in RPMI-1640 supplemented with 10% fetal bovine serum (FBS), 10 mM HEPES pH 7.35, 1 mM sodium pyruvate and 0.05 mM beta-mercaptoethanol, in a humidified 5% CO2 incubator at 37° C. For some experiments, islets were snap frozen in liquid nitrogen and stored frozen prior to analysis.
(§1) Lysis of cells or islets for SDS-PAGE and electrotransfer: After removal of media, cells were washed once with ice-cold PBS and lysed in RIPA buffer (10 mM Tris pH 7.4, 150 mM NaCl, 0.1% SDS, 1% NP40, 2 mM EDTA) plus protease inhibitor/phosphatase inhibitor cocktail (Sigma-Aldrich) or directly in Laemmli gel sample buffer. Lysates in RIPA buffer were immediately spun at 10,000 rpm for 10 min at 4° C. and the supernatants analyzed further or stored at −80° C. Islets that had been quick frozen were placed on ice and RIPA buffer containing protease inhibitor cocktail and phosphatase inhibitor was added. Lysis was carried out by gently pipetting or by syringe through a 30G needle. Total protein concentration in the lysate was determined by BCA or Bramhall assay, and 5-10 μg of samples prepared in SDS sample were resolved by SDS-PAGE in 4-12% Bis-Tris NuPAGE gels (Invitrogen) at 200 V for 30 min. Nonreducing gels were incubated in a solution containing 20 mM dithiothreitol (DTT) for 10 min at room temperature prior to electrotransfer.
(§2) Immunoblotting: Transfer membranes were rinsed once in TBST (15 mM Tris, 150 mM NaCl, 0.1% Tween-20), blocked using TST plus 5% BSA for 1 h at room temperature, and then washed four times (5 min each) in TBST. Primary antibody and secondary antibodies were diluted in TBST and each of […] incubations was 1 h at room temperature followed by 4 washes in TBST. On occasion, primary antibodies were incubated overnight at 4° C. Secondary antibodies were all HRP-conjugates. Development of immunoblots used enhanced chemiluminescence (Immobilon, Millipore, or SuperSignal West Pico PLUS, Thermo Fisher Scientific) with images captured using a Fotodyne gel imager.
Islet Isolation: Islets were isolated by collagenase P (Roche) perfusion as described following by histopaque-1077 (Sigma-Aldrich, Inc. St. Louis) gradient purification. Islets were handpicked and studied directly or after overnight culture in RPMI 1640 medium (Corning 10-040-CV) supplemented with 10% FBS, 1% penicillin/streptomycin, 100 μg/m1 primocin, 10mM Hepes, and 1mM sodium pyruvate.
Islet Western Blotting: Isolated islets were lysed in RIPA buffer (10 mM Tris pH 7.4, 150 mM NaCl, 0.1% SDS, 1% NP-40, 2mM EDTA) with protease and phosphatase inhibitors (Fisher Scientific) on ice for 10 min and lysates were collected after centrifugation at 4° C. for 10 min at 12000 g. Samples were prepared in Laemmli sample buffer without (non-reducing) or with (reducing) 5% β-mercaptoethanol. After boiling for 5 min, samples were analyzed by SDS-PAGE (4-12% Bis-Tris gel, (Bio-Rad Laboratories, Inc.)) and transferred to nitrocellulose membranes (Bio-Rad Laboratories, Inc.). […]

INS1E cells = experiment: Proinsulin disulfide-linked complexes in INS1E cells, nonreducing/reducing SDS-PAGE and immunoblotting (mAb CCI-17); type: cell-based, rat; conditions: INS1E cells
Method: HEK293T human cells lines were cultured in DMEM supplemented with 10% FBS and penicillin/streptomycin.
as §1, with “Islets that had been quick frozen were placed on ice and RIPA buffer containing protease inhibitor cocktail and phosphatase inhibitor was added.” left out, “Total protein concentration in the lysate was determined by BCA or Bramhall assay, and 5-10 μg of samples prepared in SDS sample were resolved by SDS-PAGE in 4-12% Bis-Tris NuPAGE gels (Invitrogen) at 200 V for 30 min.” left out
The lane was then laid horizontally on top of a 10% SDS-polyacrylamide resolving gel and sealed in place in stacking gel. A single-tooth comb was introduced at one end of the stacking gel to introduce a one-dimensional reduced sample of proinsulin containing cell lysate (which runs as proinsulin monomer). The gel was run at 200 V for 45 mins in Tris-Glycine buffer pH 8.8 with electrotransfer as described above.
as §2

islets = experiment: Analysis of oxidative stress in islets (CellROX Deep Red, Hoechst 33342); type: cell-based, mouse; conditions: islets after 30 wks HFD, menadione 10 μM, 3 h
Method: Analysis of Oxidative Stress: Islets were plated onto CellCarrier™-96 ultra microplates (Perkin Elmer) in phenol red-free RPMI 1640 medium supplemented with 10% FBS, 1% penicillin/streptomycin, 100 μg/ml primocin, 10mM Hepes, and 1 mM sodium pyruvate one day prior to staining. Islets were treated with menadione (AdipoGen Life Science, 10 μM) for 3 h at 37° C. Islets were stained with CellROX® Deep Red reagent (Molecular Probes, C10422, 100 μM) and Hoechst 33342 (Invitrogen, 10 μg/ml) for 1 h at the same time. Islets were washed three times with HBSS and incubated in HBSS for imaging while temperature and CO2 were controlled. […]
Because ER stress is linked with oxidative stress, the inventors tested whether Pdia1 deletion confers increased sensitivity to oxidants by treating islets (isolated after 30 wks of HFD) with the vitamin K analogue menadione, which can render cells susceptible to apoptosis by increasing cytosolic calcium with nuclear condensation. […] In FIG. 21B, quantification of ROS mean intensity is shown. CellROX Deep Red mean intensity (divided by area) was measured by image J software. […] In FIG. 21C, quantification of nuclear mean area (μm^2) measured in Hoechst 33342 stained images by ImageJ software is shown. […] Quantification of the ratio of HMW proinsulin complexes (a) to monomeric proinsulin under reducing conditions is shown in graph (lower). […]

[2] = islets, NEM treatment to alkylate free sulfhydryls

## C[C@H]1CCC/C=C/[C@@H]2C[C@H](O)C[C@H]2[C@H](O)/C=C/C(=O)O1 [BFA, brefeldin A]
[1]
  proinsulin complex formation: significantly increased proinsulin complex formation

## C#CCNc1nc(NCCNC(=O)CCl)nc(N(C)CCCCc2ccccc2)n1 [KSC-34]
Mouse pancreatic islets; WT murine islets, KSC-34 3 h then menadione 100 μM 1 h
  HMW proinsulin complexes, combination with menadione: recapitulated the effect of Pdia1 deletion upon menadione treatment
Mouse pancreatic islets; WT murine islets, KSC-34 alone, 3 h
  HMW proinsulin complexes: slightly increased HMW complexes

## CCN1C(=O)C=CC1=O [N-ethylmaleimide]
Mouse pancreatic islets; [2]
  HMW proinsulin-containing complexes: slightly increased the HMW proinsulin-containing complexes
  disulfide-linked proinsulin oligomers: slightly reduced the disulfide-linked oligomers

## CC(C)NCCCn1c(Sc2cc(Cl)cc(Cl)c2)nc2c(N)ncnc21 [PU-WS13]
INS1E cells; PU-WS13 20 μM 24 h, SubAB during last 3 h
  proinsulin disulfide-linked complex formation triggered by acute loss of BiP: did not exacerbate the proinsulin disulfide-linked complex formation
INS1E cells; PU-WS13 20 μM, 24 h
  proinsulin disulfide-linked complex formation: did not promote proinsulin disulfide-linked complex formation

## C[C@@H]1C[C@@H]([C@H](O)CC2CC(=O)NC(=O)C2)C(=O)[C@@H](C)C1 [cycloheximide]
[1]
  proinsulin complex formation: did not significantly affect the results

## CC1=CC(=O)c2ccccc2C1=O [menadione]
islets
  ROS (CellROX Deep Red stain): significantly increased ROS
  nuclear size (Hoechst 33342): promoted nuclear condensation
Mouse pancreatic islets; islets after 37 wks HFD, menadione 100 μM, 1 h
  HMW proinsulin complexes (49-198 kDa), increase by Pdia1 deletion vs WT islets: this effect was even greater in islets treated with menadione
